# Measurements from patent publication EP4803080A1, “METHOD FOR TREATING LEUKEMIA” (Shenzhen TargetRx Co., Ltd., priority 2023, dated 2025).
# Assays:
# [1] = system: K562-luc human leukemia cells; assay: Pharmacodynamic study in animal model inoculated via the carotid artery with K562-luc cells (brain metastasis model); conditions: 50 mg/kg p.o. qd
# Protocol: K562-luc tumor cells were cultured in IMDM medium containing 10% fetal bovine serum and 1500 ng/mL puromycin in an incubator at 37°C with 5% CO2. The medium was replaced every 2 to 3 days. The cells were subcultured when the confluence reaches 80% - 90%. Tumor cells in the logarithmic growth phase were used for in vivo tumor inoculation.
# Test animals: NCG mice, 6-8 weeks old, female, all handled according to SOP. The animals were housed in an SPF facility accredited by AAALAC (Association for Assessment and Accreditation of Laboratory Animal Care), in a constant-temperature and constant-humidity laminar flow clean room, using individually ventilated cages (IVC). […]
# The mouse was placed supine on a neck surgery board with the upper incisors hooked and both forelimbs abducted and fixed. […] Tumor growth was monitored once weekly using an in vivo imaging system. […]
# For routine monitoring, not only tumor growth but also behavioral changes of the animals were observed, including animal movement, food and water consumption (by cage-side observation), body weight changes, whether the eyes/hair were glossy, and any other abnormal effects. Any deaths and/or clinical signs of abnormalities were recorded. […]
# Statistical analysis: Statistical analysis between groups was performed using SPSS 16.0 software. Mean and standard error were calculated for all measured parameters according to the experimental design. […]
# [2] = system: CML-AP with T315I mutation; assay: Phase I dose escalation and dose expansion clinical trial: efficacy in CML-AP subjects with T315I mutation; format: in vivo, humans
# Text: This study is a single-arm, open-label, dose-escalation and dose-expansion Phase I clinical trial.
# The dose-escalation phase of this trial consists of about 8 dose groups, with oral administration under fasting conditions. Subjects in all dose groups will receive a single dose on Day 1 (D1), followed by pharmacokinetic (PK) and tolerability observations. […] After entering the multiple-dose period, subjects in the first dose group will initially receive twice-daily (BID) dosing (if PK data from the single-dose period are available, the dosing frequency during the multiple-dose period may be adjusted based on the PK data). The dosing frequency for subjects in subsequent dose groups after entering the multiple-dose period will be determined based on available PK and tolerability data. Throughout the trial, dosing frequency for all subjects may be adjusted based on continuously updated safety and PK data.
# (§1) A continuous reassessment method (CRM) based on the principle of the escalation with overdose control (EWOC) design will be used to recommend the next specific dose for each dose escalation, thereby completing dose escalation and determining the maximum tolerated dose (MTD). If both the investigator and sponsor believe that higher dose groups may offer better efficacy and manageable safety, the EWOC-based CRM method may be used to explore higher doses. All enrolled subjects will receive long-term treatment with the test drug and undergo evaluations for safety, tolerability, and preliminary efficacy.
# After obtaining certain research data from the dose-escalation phase, the investigator may comprehensively consider safety, efficacy, and other information to decide whether to enroll additional subjects at the MTD and/or lower dose levels to determine the recommended Phase II dose (RP2D). Two to four suitable dosing regimens will be selected for expansion in the target population (including subjects enrolled at the target dose levels during the escalation phase).
# A total of 8 dose groups were established: 10 mg bid, 20 mg bid, 40 mg bid, 80 mg bid, 40 mg qd, 80 mg qd, 160 mg qd, and 240 mg qd.
# The dose expansion phase was conducted in the following 3 cohorts: • Cohort 1: Subjects with chronic phase (CP) chronic myeloid leukemia (CML) who had previously received at least ≥2 different TKIs and were T315I-negative. A total of 3 dose groups were established: 40 mg qd, 80 mg qd, and 240 mg qd; • Cohort 2: Subjects with chronic phase (CP) chronic myeloid leukemia (CML) who have previously received ≥1 TKI and were T315I-positive. A total of 2 dose groups were established: 40 mg qd and 240 mg qd; • Cohort 3: Subjects with accelerated phase (AP) chronic myeloid leukemia (CML) who have previously received ≥1 TKI, regardless of T315I positivity. A total of 1 dose group was established: 240 mg qd.
# [3] = Phase I clinical trial: safety and tolerability; format: in vivo
# Text: To explore the safety and tolerability of multiple doses of Compound A in humans, and to determine the maximum tolerated dose (MTD) and the recommended Phase II dose (RP2D).
# This study is a single-arm, open-label, dose-escalation and dose-expansion Phase I clinical trial. The trial plans to enroll patients with chronic myeloid leukemia (CML) who have developed resistance or intolerance after prior treatment with BCR-ABL1 tyrosine kinase inhibitor(s) (TKIs).
# The dose-escalation phase of this trial consists of about 8 dose groups, with oral administration under fasting conditions. Subjects in all dose groups will receive a single dose on Day 1 (D1), followed by pharmacokinetic (PK) and tolerability observations. If no drug-related adverse events of Grade 3 or higher occur during the single-dose period, the subject will enter the multiple-dose period (i.e., the treatment period) after 3-5 days (for the first dose group, the multiple-dose period begins 5 days after the first dose [i.e., starting on Day 6]; for subsequent dose groups, the interval will be determined based on available tolerability and PK data). After entering the multiple-dose period, subjects in the first dose group will initially receive twice-daily (BID) dosing (if PK data from the single-dose period are available, the dosing frequency during the multiple-dose period may be adjusted based on the PK data). The dosing frequency for subjects in subsequent dose groups after entering the multiple-dose period will be determined based on available PK and tolerability data. Throughout the trial, dosing frequency for all subjects may be adjusted based on continuously updated safety and PK data.
# as §1
# [4] = CML-AP and T315I mutation, failed or intolerant to third-generation or later TKI therapy
# [5] = CML-AP and T315I mutation, failed or intolerant to third-generation or later TKI therapy, 12 evaluable
# [6] = CML-AP and T315I mutation, failed or intolerant to third-generation or later TKI therapy, Kaplan-Meier method
# [7] = CML-AP subjects with T315I mutation, as of June 2, 2024
# [8] = CML subjects, safety data cutoff June 2, 2023
smiles,measurement,setting,value
"O=C(Nc1ccc(OC(F)(F)Cl)cc1)c1cnc(N2CC[C@@H](F)C2)c(-c2cnccn2)c1 [Compound A, (R)-N-(4-(chlorodifluoromethoxy)phenyl)-6-(3-fluoropyrrolidin-1-yl)-5-(pyrazin-2-yl)nicotinamide]",BLI signal intensity of brain tumors (fluorescent signal),"[1]; day 28 after dosing, versus control group, Fig. 8",significantly inhibited
same,body weight loss,[1]; during the treatment period,did not show significant body weight loss
same,median EFS,[2]; [4],5.55 months
same,median PFS,[2]; [4],not reached
same,median duration of MaHR response,[2]; [4],11.93 months
same,median time to achieve CCyR,[2]; [4],"4.19 (2.76, 5.62) months"
same,median time to achieve MCyR,[2]; [4],"2.69 (2.69, 2.76) months"
same,CCyR,[2]; [5],16.7%
same,MCyR,[2]; [5],25.0%
same,MMR,[2]; [5],8.3%
same,MaHR,"[2]; CML-AP and T315I mutation, failed or intolerant to third-generation or later TKI therapy, 13 evaluable",76.9%
same,12-month EFS rate,[2]; [6],18.0%
same,12-month PFS rate,[2]; [6],75.8%
same,18-month cumulative incidence rate of CCyR,[2]; [7],30%
same,18-month cumulative incidence rate of MCyR,[2]; [7],36%
same,18-month cumulative incidence rate of MMR,[2]; [7],15%
same,dose-dependent increase in the frequency of adverse events,"[3]; CML subjects, 10 mg BID to 240 mg QD, safety data cutoff June 2, 2023",no observed dose-dependent increase
same,Grade ≥3 hematological adverse events associated with the test drug,[3]; [8],mostly manageable with treatment interruption
same,non-hematological toxicity compared to ATP-competitive TKIs,[3]; [8],significant improvement in non-hematological toxicity
same,pigmentation or severe arterial occlusive events and venous thromboembolic events,[3]; [8],no reported
same,safety and tolerability profile,[3]; [8],favorable safety and tolerability profile
same,tolerability,"[3]; CML-CP and CML-AP patients, extended follow-up, as of June 2, 2024",good tolerability
